In brackets after ≈: the same amount, converted by molar mass. Counter-ions that a name gives are not always drawn. Like-named read-outs stand apart in the source and are kept apart here.
How the values were obtained:
Test in all cases: in vitro antibacterial MIC, agar plate dilution
Type in all cases: cell-based
Citrobacter div. K 82-24 = conditions: 35° C.
Method in brief: (§1)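 Read-out is visible growth inhibition on Mueller-Hinton agar dilution plates incubated 18 hours at 35° C after inoculation of ~10^4 CFU (Steers device), with MIC reported in mcg/ml.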

[1] = system: Enterobacter cloacae K 84-10; conditions: 35° C.
Method in brief: as §1

[2] = system: Enterobacter cloacae MOR 84-30; conditions: Enterobacter cloacae, MOR8430, 18 h, 35° C., read-out: MIC
Method in brief: as §1

[3] = system: Enterobacter cloacae VGH 84-39; conditions: Enterobacter cloacae, VGH8439, 18 h, 35° C., read-out: MIC
Method in brief: as §1

[4] = system: Escherichia coli ATCC 25922; conditions: 35° C.
Method in brief: as §1

[5] = system: Escherichia coli CMC 84-11; conditions: 18 hours, 35° C.
Method in brief: as §1

[6] = system: Escherichia coli CMC 84-50; conditions: Escherichia coli, CMC8450, 18 h, 35° C., read-out: MIC
Method in brief: as §1

Escherichia coli LL 311 = conditions: 35° C.
Method in brief: as §1

[7] = system: Escherichia coli MOR 84-20; conditions: Escherichia coli, MOR8420, 18 h, 35° C., read-out: MIC
Method in brief: as §1

[8] = system: Escherichia coli VGH 84-19; conditions: Escherichia coli, VGH8419, 18 h, 35° C., read-out: MIC
Method in brief: as §1

[9] = system: Klebsiella pneumoniae CMC 84-31; conditions: Klebsiella pneumoniae, CMC8431, 18 h, 35° C., read-out: MIC
Method in brief: as §1

[10] = system: Klebsiella pneumoniae IO 83-5; conditions: Klebsiella pneumoniae, IO835, 18 h, 35° C., read-out: MIC
Method in brief: as §1

[11] = system: Klebsiella pneumoniae MOR 84-24; conditions: Klebsiella pneumoniae, MOR8424, 18 h, 35° C., read-out: MIC
Method in brief: as §1

[12] = system: Morganella morganii CMC 84-37; conditions: Morganella morganii, CMC8437, 18 h, 35° C., read-out: MIC
Method in brief: as §1

[13] = system: Morganella morganii CMC 84-38; conditions: 35° C.
Method in brief: as §1

[14] = system: Morganella morganii MOR 84-45; conditions: Morganella morganii, MOR8445, 18 h, 35° C., read-out: MIC
Method in brief: as §1

[15] = system: Morganella morganii VHG 84-12; conditions: Morganella morganii, VHG8412, 18 h, Morganella morganii VHG 84-12 (VGH 84-12 for Example 131), 35° C., read-out: MIC
Method in brief: as §1

[16] = system: Proteus rettgeri CMC 84-41; conditions: 18 hours, 35° C.
Method in brief: as §1

[17] = system: Proteus rettgeri IO 83-21; conditions: Providencia rettgeri, IO8321, 18 h, 35° C., read-out: MIC
Method in brief: as §1

[18] = system: Providencia stuarti CMC 83-3; conditions: Providencia, CMC833, 18 h, 35° C., read-out: MIC
Method in brief: as §1

[19] = system: Pseudomonas aeruginosa CMC 83-20; conditions: 35° C.
Method in brief: as §1

[20] = system: Pseudomonas aeruginosa K 84-16; conditions: Pseudomonas aeruginosa, K8416, 18 h, 35° C., read-out: MIC
Method in brief: as §1

[21] = system: Pseudomonas aeruginosa LL-1244; conditions: 35° C.
Method in brief: as §1

[22] = system: Pseudomonas aeruginosa VGH 84-3; conditions: Pseudomonas aeruginosa, VGH843, 18 h, 35° C., read-out: MIC
Method in brief: as §1

[23] = system: Pseudomonas aeruginosa VGH 84-4; conditions: 35° C.
Method in brief: as §1

[24] = system: Serratia marcescens CMC 83-74; conditions: Serratia marcescens, CMC8374, 18 h, 35° C., read-out: MIC
Method in brief: as §1

[25] = system: Serratia marcescens IO 83-63; conditions: IO8363, 18 hours, 35° C.
Method in brief: as §1

[26] = system: Serratia marcescens K 84-18; conditions: 18 hours, 35° C.
Method in brief: as §1

[27] = system: Serratia marcescens MOR 84-41; conditions: Serratia marcescens, MOR8441, 18 h, 35° C., read-out: MIC
Method in brief: as §1

[28] = system: Serratia marcescens VGH 84-30; conditions: 35° C.
Method in brief: as §1

[29] = system: Staphylococcus aureus ATTC 29213; conditions: 35° C.
Method in brief: as §1

[30] = system: Staphylococcus aureus K 82-26; conditions: 35° C.
Method in brief: as §1

[31] = system: Staphylococcus aureus Smith; conditions: 35° C.
Method in brief: as §1

[32] = system: Staphylococcus aureus VGH 84-45; conditions: 35° C.
Method in brief: as §1

[33] = system: Staphylococcus aureus VGH 84-47; conditions: 35° C.
Method in brief: as §1

[34] = system: Streptococcus faecalis CMC 83-120; conditions: Enterococcus faecalis, CMC83120, 18 h, 35° C., read-out: MIC
Method in brief: as §1

[35] = system: Streptococcus faecalis UCI 85-19; conditions: 35° C.
Method in brief: as §1

[36] = system: Streptococcus faecalis UCI 85-30; conditions: Enterococcus faecalis, UCI8530, 18 h, 35° C., read-out: MIC
Method in brief: as §1

[37] = system: Streptococcus faecalis VGH 84-65; conditions: 35° C.
Method in brief: as §1

[38] = system: Streptococcus faecalis VGH 84-69; conditions: Enterococcus faecalis, VGH8469, 18 h, 35° C., read-out: MIC
Method in brief: as §1

[39] = system: Staphylococcus aureus CMC 83-131; conditions: Staphylococcus aureus, CMC83131, 18 h, 35° C., read-out: MIC
Method in brief: as §1

[40] = Escherichia coli, ATCC25922, 18 h, read-out: MIC

O=C(O)c1cn(C2CC2)c2cc(N3CCNC(c4ccsc4)C3)c(F)cc2c1=O (centres unmarked) [Example 98, 1-Cyclopropyl-6-fluoro-1,4-dihydro-4-oxo-7-[3-(3-thienyl)-1-piperazinyl]-3-quinolinecarboxylic acid, monohydrochloride]
MIC (Citrobacter div. K 82-24; Citrobacter, DIV.K8224, 18 h, read-out: MIC): 0.12 µg/mL | MIC ([1]; 18 hours, monohydrochloride): 0.06 µg/mL | MIC [2]: 1 µg/mL | MIC [3]: 0.12 µg/mL | MIC ([4]; 18 hours, monohydrochloride): 0.12 µg/mL | MIC [4, 40]: 0.06 µg/mL | MIC ([5]; monohydrochloride): 0.03 µg/mL | MIC [6]: 0.12 µg/mL | MIC (Escherichia coli LL 311; Escherichia coli, LL311, 18 h, read-out: MIC): 0.03 µg/mL | MIC [7]: 0.12 µg/mL | MIC [8]: 0.12 µg/mL | MIC [9]: 0.12 µg/mL | MIC [10]: 0.25 µg/mL | MIC [11]: 0.25 µg/mL | MIC [12]: 0.06 µg/mL | MIC ([13]; Morganella morganii, CMC8438, 18 h, read-out: MIC): 0.12 µg/mL | MIC [14]: 0.12 µg/mL | MIC [15]: 0.25 µg/mL | MIC ([16]; monohydrochloride): 0.12 µg/mL | MIC [17]: 0.5 µg/mL | MIC [18]: 8 µg/mL | MIC ([19]; Pseudomonas aeruginosa, CMC8320, 18 h, read-out: MIC): 4 µg/mL | MIC [20]: 4 µg/mL | MIC ([21]; Pseudomonas aeruginosa, LL1244, 18 h, read-out: MIC): 2 µg/mL | MIC [22]: 16 µg/mL | MIC ([23]; 18 hours, monohydrochloride): 2 µg/mL | MIC [24]: 8 µg/mL | MIC [25]: 1 µg/mL | MIC ([26]; monohydrochloride): 0.25 µg/mL | MIC [27]: 0.25 µg/mL | MIC ([28]; Serratia marcescens, VGH8430, 18 h, read-out: MIC): 4 µg/mL | MIC ([29]; 18 hours, monohydrochloride): 0.12 µg/mL | MIC ([29]; Staphylococcus aureus, ATTC29213, 18 h, read-out: MIC): 0.06 µg/mL | MIC ([30]; Staphylococcus aureus, K8226, 18 h, read-out: MIC): 0.12 µg/mL | MIC ([31]; 18 hours, monohydrochloride): 0.03 µg/mL | MIC ([32]; 18 hours, monohydrochloride): 0.03 µg/mL | MIC ([33]; Staphylococcus aureus, VGH8447, 18 h, read-out: MIC): 0.12 µg/mL | MIC [34]: 1 µg/mL | MIC ([35]; Enterococcus faecalis, UCI8519, 18 h, read-out: MIC): 0.5 µg/mL | MIC [36]: 1 µg/mL | MIC ([37]; 18 hours, monohydrochloride): 0.5 µg/mL | MIC [38]: 0.5 µg/mL

O=C(O)c1cn(C2CC2)c2cc(N3CCNC(C4CC4)C3)c(F)cc2c1=O (centres unmarked) [Example 96, 7-(3-Cyclopropyl-1-piperazinyl) -1-cyclopropyl-6-fluoro-1,4-dihydro-4-oxo-3-quinolinecarboxylic acid]
MIC (Citrobacter div. K 82-24; 18 hours): 0.008 µg/mL (≈ 0.0215 µM) | MIC ([1]; Enterobacter cloacae, K8410, 18 h, read-out: MIC): 0.015 µg/mL (≈ 0.0404 µM) | MIC [2]: 0.25 µg/mL (≈ 0.673 µM) | MIC [3]: 0.015 µg/mL (≈ 0.0404 µM) | MIC [4, 40]: 0.015 µg/mL (≈ 0.0404 µM) | MIC [5]: > 0.015 µg/mL | MIC [6]: 0.015 µg/mL (≈ 0.0404 µM) | MIC (Escherichia coli LL 311; 18 hours): 0.03 µg/mL (≈ 0.0808 µM) | MIC [7]: 0.008 µg/mL (≈ 0.0215 µM) | MIC [8]: 0.008 µg/mL (≈ 0.0215 µM) | MIC [9]: 0.015 µg/mL (≈ 0.0404 µM) | MIC [10]: 0.03 µg/mL (≈ 0.0808 µM) | MIC [11]: 0.03 µg/mL (≈ 0.0808 µM) | MIC [12]: 0.03 µg/mL (≈ 0.0808 µM) | MIC ([13]; 18 hours): 0.3 µg/mL (≈ 0.808 µM) | MIC [14]: 0.008 µg/mL (≈ 0.0215 µM) | MIC [15]: 0.12 µg/mL (≈ 0.323 µM) | MIC [16]: 0.03 µg/mL (≈ 0.0808 µM) | MIC [17]: 0.12 µg/mL (≈ 0.323 µM) | MIC [18]: 2 µg/mL (≈ 5.38 µM) | MIC ([19]; 18 hours): 1 µg/mL (≈ 2.69 µM) | MIC [20]: 2 µg/mL (≈ 5.38 µM) | MIC ([21]; 18 hours): 1 µg/mL (≈ 2.69 µM) | MIC [22]: 4 µg/mL (≈ 10.8 µM) | MIC ([23]; Pseudomonas aeruginosa, VGH844, 18 h, read-out: MIC): 1 µg/mL (≈ 2.69 µM) | MIC [24]: 4 µg/mL (≈ 10.8 µM) | MIC [25]: 0.25 µg/mL (≈ 0.673 µM) | MIC [26]: > 0.015 µg/mL | MIC [27]: 0.06 µg/mL (≈ 0.162 µM) | MIC ([28]; 18 hours): 1 µg/mL (≈ 2.69 µM) | MIC ([29]; 18 hours): 0.25 µg/mL (≈ 0.673 µM) | MIC [39]: 0.25 µg/mL (≈ 0.673 µM) | MIC ([30]; 18 hours): 0.25 µg/mL (≈ 0.673 µM) | MIC ([31]; Staphylococcus aureus, 18 h, read-out: MIC): 0.06 µg/mL (≈ 0.162 µM) | MIC ([32]; Staphylococcus aureus, VGH8445, 18 h, read-out: MIC): 0.06 µg/mL (≈ 0.162 µM) | MIC ([33]; 18 hours): 0.06 µg/mL (≈ 0.162 µM) | MIC [34]: 1 µg/mL (≈ 2.69 µM) | MIC ([35]; 18 hours): 0.5 µg/mL (≈ 1.35 µM) | MIC [36]: 2 µg/mL (≈ 5.38 µM) | MIC ([37]; Enterococcus faecalis, VGH8465, 18 h, read-out: MIC): 0.5 µg/mL (≈ 1.35 µM) | MIC [38]: 1 µg/mL (≈ 2.69 µM)
